According to patent US20260071518A1, “SURFACTANT FOR CARBON DIOXIDE STORAGE” (TOTALENERGIES ONETECH, priority 2022, published 2026):

How the values were obtained:
[1] = slim tube packed with sand, co-injection of carbon dioxide and surfactant-brine composition, apparent viscosity (Example 1); assay type: physicochemical; conditions: 0.2 wt. % in 220 g/L NaCl brine, pH=6, 25° C., 150 bar, carbon dioxide fraction 50%, versus comparative surfactant compounds
Experimental: In this example, experiments were conducted within a slim tube packed with sand. The tube length was 25 cm, the tube diameter was 1 cm.
Various surfactant compositions were made by dissolving 0.2 wt. % of an individual surfactant compound in brine having a NaCl content of 220 g/L, buffered at pH=6 with a sodium acetate/acetic acid buffer.
Carbon dioxide and the surfactant-brine composition were co-injected into the slim tube via two separate inlets, at a temperature of 25° C. and at a pressure of 150 bar, with a total flow rate of 60 ft/day and a carbon dioxide fraction of 50%.
The pressure drop across the tube was measured and the apparent viscosity was calculated based on Darcy's law. Specifically, the apparent viscosity was obtained according to the following formula: (permeability×pressure gradient)/(volume flow/inlet area of the core (tube)).

[2] = carbonate core co-injection of carbon dioxide and surfactant-water composition, gas saturation and apparent viscosity (Example 4); assay type: physicochemical; conditions: 0.2 wt. % in water, 110° C., 150 bar
Experimental: In this example, experiments were conducted using a carbonate core. The core was 30.1 cm long, having a diameter of 3.8 cm, a porosity of 28%, permeability of 130 md.
A surfactant-water composition was prepared by dissolving 0.2 wt. % of a surfactant compound (compound E of Example 1, N^1-dodecyl-N^3,N^3-dimethylpropane-1,3-diamine) in water.
Carbon dioxide and the surfactant-water composition were co-injected into the carbonate core via two separate inlets, at a temperature of 110° C. and at a pressure of 150 bar, with a total flow rate of 4 ft/day, varying the fraction of carbon dioxide from 50% to 95%. Carbon dioxide and water alone were also co-injected into the carbonate core under the same conditions.
The gas saturation in the core was measured by obtaining a mass balance between what is injected (water+CO2−pump control) and produced water measured by burette (volume) along with a scale (mass).
The apparent viscosity was calculated based on Darcy's law.

**Q.** What does the source list for CCCCCCCCCCCCNCCCN(C)C [Compound E, N^1-dodecyl-N^3,N^3-dimethylpropane-1,3-diamine]?
**A.** rise in apparent viscosity [1]: quicker and higher rise in viscosity; apparent viscosity of the resulting emulsion ([2]; CO2 fraction 50% to 95%, versus absence of surfactant): higher apparent viscosity; change of apparent viscosity with CO2 fraction ([2]; CO2 fraction increased from 50 to 95%): decreased; gas (CO2) saturation increase compared to absence of surfactant ([2]; at each CO2 fraction tested (50% to 95%)): 2-4 fold
